# Assay results taken from patent publication EP4389156A1, “RA[…] LIGAND COMPOUNDS AND PRECURSORS THEREOF” (Technische Universität München, priority 2022, dated 2024).
# Legend:
# [1] = target: T1, human serum albumin (HSA) (Homo sapiens, UniProt P02768); experiment: HSA binding by high performance affinity chromatography (HPAC); format: in vitro ADME; details: uncomplexed compounds, n = 1
# T1 construct: purchased Daicel, Tokyo, Japan H13H-2433
# Method: HSA binding of the uncomplexed PSMA ligands was determined according to a previously published procedure via HPLC (Valko, K.; Nunhuck, S.; Bevan, C.; Abraham, M. H.; Reynolds, D. P., Fast gradient HPLC method to determine compounds binding to human serum albumin. Relationships with octanol/water and immobilized artificial membrane lipophilicity. J Pharm Sci. 2003, 92, 2236-2248). A Chiralpak HSA column (50 × 3 mm, 5 µm, H13H-2433, Daicel, Tokyo, Japan) was used at a constant flow rate of 0.5 mL/min at rt. Mobile phase A was a freshly prepared 50 mM aqueous solution of NH4OAc (pH 6.9) and mobile phase B was isopropanol (HPLC grade, VWR). The applied gradient for all experiments was 100% A (0 to 3 min), followed by 80% A (3 to 40 min). Prior to the experiment, the column was calibrated using nine reference substances with a HSA binding, known from literature, in the range of 13 to 99% (Valko, K.; Nunhuck, S.; Bevan, C.; Abraham, M. H.; Reynolds, D. P., J Pharm Sci. 2003, 92, 2236-2248; Yamazaki, K.; Kanaoka, M., Computational prediction of the plasma protein-binding percent of diverse pharmaceutical compounds. J Pharm Sci. 2004, 93, 1480-1494). All substances, including the examined PSMA ligands, were dissolved in a 1:1 mixture (v/v) of isopropanol and a 50 mM aqueous solution of NH4OAc (pH 6.9) with a final concentration of 0.5 mg/mL. Non-linear regression was established with the OriginPro 2016G software (Northampton, United States).
# [2] = test system: LNCaP cells; experiment: PSMA-mediated internalization into LNCaP cells; format: cell-based; details: 1 h
# Method: Competitive binding studies were carried out in analogy to a previously reported procedure. As a modification the non-radiolabeled standard competitor (((S)-1-carboxy-5-(4-(iodo)benzamido)pentyl)carbamoyl)-L-glutamic acid (IBA-KuE) was applied in increasing concentrations (10^-5 - 10^-11 M/well, n = 3 each) whereas the novel PSMA-binding compounds of interest were applied as ^99mTc-labeled radioligands (0.2 nM/well). In this inversed experimental approach, higher values correspond to higher affinities and are referred to as inverse IC50. Poly-L-lysine coated 24-well plates were used (n = 3). Data are given as mean ± SD. To determine the cellular uptake of the ^99mTc-labeled PSMA ligands into LNCaP cells by means of PSMA-mediated internalization at 1 h, a previously reported protocol was applied with assay concentrations of 1.0 nM and 0.2 nM for ^99mTc-labeled PSMA ligands and the reference compound [^125I]IBA-KuE, respectively. Data are corrected for non-specific binding and normalized to the specific internalization of the reference. Results are given as mean ± SD.
# T1 sequence (P02768 25-609): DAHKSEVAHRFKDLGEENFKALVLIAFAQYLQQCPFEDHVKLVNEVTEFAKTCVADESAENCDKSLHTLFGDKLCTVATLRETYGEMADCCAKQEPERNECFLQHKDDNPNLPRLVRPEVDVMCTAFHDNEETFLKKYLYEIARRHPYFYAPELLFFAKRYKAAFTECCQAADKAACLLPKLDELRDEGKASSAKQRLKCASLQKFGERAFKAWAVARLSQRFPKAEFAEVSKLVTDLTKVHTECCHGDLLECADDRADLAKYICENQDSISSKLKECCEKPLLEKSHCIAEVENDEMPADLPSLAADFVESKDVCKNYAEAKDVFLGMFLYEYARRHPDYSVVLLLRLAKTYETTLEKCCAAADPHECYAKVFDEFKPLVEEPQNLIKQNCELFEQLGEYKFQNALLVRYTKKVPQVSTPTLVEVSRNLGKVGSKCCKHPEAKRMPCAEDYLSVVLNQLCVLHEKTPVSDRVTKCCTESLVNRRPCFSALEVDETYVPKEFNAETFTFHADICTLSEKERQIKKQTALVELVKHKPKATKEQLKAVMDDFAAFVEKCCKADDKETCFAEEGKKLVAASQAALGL
smiles,measurement,setting,value
CC(C)(C)[Si](O)(c1ccc(C(=O)NC[C@@H](NC(=O)[C@@H](CCC(=O)O)NC(=O)C(CNCCN)CNCCN)C(=O)N[C@H](CCCCNC(=O)CCC(=O)NCCC[C@@H](NC(=O)CC[C@H](NC(=O)N[C@@H](CCC(=O)O)C(=O)O)C(=O)O)C(=O)O)C(=O)O)cc1)C(C)(C)C.[O]=[99Tc+]=[O] [[^99mTc]Tc-N4-PSMA-12],HSA-binding (HPAC) (%),[1],47.7%
same,internalization (% IBA-KuE),"[2]; 37°C, n = 3, as percentage of reference [125I]IBA-KuE, mean ± SD",311 ± 16%
same,fold higher internalization than [^99mTc]Tc-N4-PSMA-13,[2]; relative to [^99mTc]Tc-N4-PSMA-13,1.9 fold
same,fold higher internalization than [^99mTc]Tc-N4-PSMA-21,[2]; relative to [^99mTc]Tc-N4-PSMA-21,1.7 fold
same,fold higher internalization than [^99mTc]Tc-PSMA-I&S,[2]; relative to [^99mTc]Tc-PSMA-I&S,1.3 fold
